Patent US9629816B2, “Small molecule therapeutic compounds targeting thioesterase deficiency disorders and methods of using the same” (The United States of America, as represented by the …, priority 2011, dated 2017)

Key:
[1] = Cleavage of thioester linkage in [14C]palmitoyl-CoA, release of free [14C]palmitate (TLC, autoradiography); format: biochemical; conditions: varying concentrations; various incubation times; [14C]palmitate production
Method: It has been reported that thioester linkages in s-acylated proteins are labile, and that compounds having nucleophilic properties are able to disrupt such linkages. Thus, the ability of derivatives of hydroxylamine to disrupt thioester linkages in s-acylated proteins was tested. Twelve HA-derivatives, described in Table 1, were screened for their ability to cleave thioester linkage in [^14C]palmitoyl˜CoA (a model thioester substrate of PPT1), mediating the release of free [^14C]palmitic acid, a process depicted in FIG. 2. […] [^14C]-palmitoyl-CoA was incubated for 1 hour with each of the HA derivatives and the reaction mixture was resolved by thin layer chromatography (TLC) followed by autoradiography. The free [^14C]-palmitate bands were visible and quantitated by densitometric analysis of the bands.

INCL fibroblasts = assay: MTT viability of cultured INCL fibroblasts; format: cell-based, human; conditions: 48 hours of treatment; viability as percent of untreated control (FIG. 4A-C)
Method: Ten out of the twelve HA-derivative compounds listed in Table 1 were tested to determine whether they adversely affected the viability of cultured cells from INCL patients. […] Briefly, following treatment with HA-derivatives INCL cells were incubated with Thiazolyl Blue Tetrazolium […] for 4 hours at 37° C. Formazan crystals thus formed were dissolved in acidified isopropanol and absorption was measured at 570 nm. Viability was expressed as percent of untreated control.
Briefly, normal fibroblasts (GM 00498) were obtained from the Coriell Institute of Medical Research, USA. PPT1-deficient INCL fibroblasts were isolated from skin biopsy samples of INCL patients admitted to an ongoing clinical protocol (#01-CH-0086) approved by the Institutional Review Board (IRB) of the National Institute of Child Health and Human Development (NICHD) at the National Institute of Health (NIH). […] The fibroblasts were cultured in the presence or absence of varying concentrations of each of the HA-derivatives for 48 hours, after which the viability of the cells was determined using the MTT-Cell Viability Assay by T. Mossman, (Rapid colorimetric assay for cellular growth and survival. J. Immunol. Method. 65 (1983) 55-63).

INCL lymphoblasts [2] = assay: Depletion of [35S]cysteine-labeled lipid thioesters / hydrolysis of S-acylated proteins in PPT1-deficient lymphoblasts; format: cell-based, human; conditions: lymphoblasts of nine NCL patients; 48 hours vs untreated cells (FIG. 8)
Method: Thus, this derivative was chosen for more extensive study of its ability to hydrolyze […] proteins, and to deplete lipid-extractable [^35S]cysteine thioesters from fibroblasts and lymphoblasts. INCL fibroblasts were obtained and cultured as described in Example 4. The cells were then labeled with [^35S]cysteine. Briefly, following incubation for six hours in medium lacking serum and cysteine/cystine, the cells were washed and then re-cultured for varying lengths of time in medium containing NtBuHA, with a change of medium every 12 hours. As controls, [^35S]cysteine-labeled cells were cultured in drug-free medium as well as medium containing 1M HA. Following incubation, cells were washed twice with cold PBS and then centrifuged at 2,250 g at 4° C. for 5 minutes. Lipid thioesters were then extracted from the cells and subject to analysis by high-performance thin layer chromatography. Briefly, the extracted fatty acyl esters were dissolved in chloroform:methanol (1:1) and an aliquot applied to a TLC plate and resolved using a mixture of chloroform:methanol:water (65:25:4). The plates were then dried and autoradiographs obtained.
The ability of NtBuHA to deplete [^35S]cysteine-thioester containing compounds was tested using [^35S]cysteine-labeled, immortalized lymphoblasts. […]

INCL lymphoblasts [3] = assay: TEM analysis of GRODs in cultured INCL lymphoblasts; format: cell-based, human
Method: Transmission electron microsocopy (TEM) of INCL lymphoblasts and fibroblasts was performed. Briefly, cells were first treated with 250 μM NtBuHA for 3 weeks. Medium was replaced with fresh 250 μM of NtBuHA at every 72 hours. After treatment, cells were fixed with 2.5% glutaraldehyde in sodium phosphate buffer, washed three times with Millonig's phosphate buffer and stained with 2.5% uranyl acetate. Ultra-thin sections were then prepared using AO Reichert Ultracut ultramicrotome, stained with lead citrate and examined by using Zeiss EM10 CA.
Accordingly, untreated- and NtBuHA-treated cultured INCL lymphoblasts were analyzed using TEM.
For a therapeutic agent to be effective for INCL it must not only mediate depletion of ceroid by cleaving thioester linkage in S-acylated proteins but it must also prevent re-accumulation of ceroid. […] Some of these cultures were washed with PBS and then cultured for an additional 3 weeks in medium without NtBuHA before being analyzed by TEM.

INCL lymphoblasts [4] = assay: H2O2-induced apoptosis in INCL lymphoblasts (annexin V, FACS); format: cell-based, human; conditions: 1 mM NtBuHA 12 hours
Method: To evaluate whether NtBuHA protects against oxidative stress-induced apoptosis in INCL lymphoblasts the cells were treated with 1 mM NtBuHA for 12 hours and then incubated with 500 μM H2O2 for 3 hours in presence or absence of NtBuHA (1 mM). Untreated INCL lymphoblasts were also treated with H2O2 for 3 hours. For the detection of apoptosis the cells were stained with annexin V using Apoptosis detection kit (Biovision) and analyzed by FACS (Guava EasyCyte Mini System, Millipore).
Moreover, in these cells antisense-mediated inhibition of PPT1 leads to increased apoptosis. […] In addition, increased neuronal apoptosis in the brain of PPT1-KO mice has also been reported. […] Thus, the inventors sought to determine whether the NtBuHA-treatment protects cultured immortalized INCL lymphoblasts from oxidative-stress mediated apoptosis. Cultured lymphoblasts from INCL patients were chosen because PPT1 is expressed in all tissues and PPT 1-deficiency in cultured lymphoblasts and fibroblasts from INCL patients show virtually identical pathological changes (accumulation of ceroid, GRODs and increased apoptosis) as are found in postmortem neuronal tissues from such patients. […] Apoptosis of the H2O2-treated cells was then quantitated by florescence activated cell sorting (FACS) analysis.

Structure (SMILES): CC(C)(C)NO [NtBuHA, N-(tert-Butyl)hydroxylamine]
- dose- and time-dependence of thioester linkage cleavage in [14C]palmitoyl-CoA [1]: cleaved the thioester linkage in a dose-dependent and time-dependent manner
- toxicity / viability of INCL cells (MTT) (INCL fibroblasts): non-toxic
- intensity of [35S]cysteine-labeled lipid bands (INCL lymphoblasts [2]): clear reduction in the intensity
- GRODs in INCL lymphoblasts (INCL lymphoblasts [3]; 250 μM for 3 weeks vs untreated controls (FIG. 9A-C)): either no GRODs, FIG. 9B, or a substantially reduced number of GRODs that were considerably smaller in size
- GRODs after withdrawal of treatment (INCL lymphoblasts [3]; 3 weeks treatment, then additional 3 weeks in medium without NtBuHA (FIG. 9D, 11)): withdrawal from the culture medium caused reaccumulation
- H2O2-induced apoptosis, pre- and co-treated cells (INCL lymphoblasts [4]; then 500 μM H2O2 3 hours in presence of NtBuHA (FIG. 15)): no alteration in apoptosis above the base level
- H2O2-induced apoptosis, pretreated cells (INCL lymphoblasts [4]; then 500 μM H2O2 3 hours without NtBuHA (FIG. 15)): failed to induce apoptosis above the base level
